Source: patent US20100152137A1, “Alkylphospholipids as active agents for prevention of plant pathogens” (KTB-Tumorforschungs GMBH, priority 2006, published 2010)
Where “and” joins values, the source holds several entries; their conditions need not be identical. Identical values can stand only once.

Assays:
Plasmopara viticola [1] = test: Grapevine leaf disk test against downy mildew; type: in vivo, Plasmopara viticola on Vitis vinifera cv. Müller-Thurgau; settings: for Average infestation intensity: five-point scale 1-5, per experiment; for No. of leaf disks at scale point 1 (no sporulation) / No. of leaf disks at scale point 2 / No. of leaf disks at scale point 3 / No. of leaf disks at scale point 4 / No. of leaf disks at scale point 5 (sporulation all over the surface): six days after infection
Experimental: Greenhouse plants of the variety Müller-Thurgau (Vitis vinifera cv. Müller-Thurgau) served as the starting material. Young leaves were sterilized on the surface with 70% (v/v) ethanol. Subsequently, leaf disks of 16 mm in diameter were punched out and placed upside down onto water agar (0.8%) in transparent boxes. One drop (about 60 μl) of an aqueous test solution (concentrations employed, see FIG. 1) was applied 24 h before the infection with the pathogen causing downy mildew (Plasmopara viticola), and the leaf disks were incubated at 25° C. (16 h of white light 300 μmol m^−2 s^−1; 8 h of dark) and >95% relative humidity. After 24 h, the drop was removed and replaced by a drop containing spores of the pathogen (about 50 μl of an aqueous suspension containing 2×10^5 sporangia/mil). The infestation intensity was determined six days after the infection.
The infestation intensity was determined by means of a five-point scale ranging from 1 (no sporulation) to 5 (sporulation all over the surface). For each substance and concentration, 10 leaf disks per experiment were evaluated, and the mean value from at least three independent parallel experiments was determined. Distilled water and phosphite as negative and positive controls, respectively.

[2] = system: single cell culture of Vitis vinifera cv. Pinot noir; test: pH change (alcalinization) in the medium of a single cell culture of grapevine; type: cell-based
Source text: A response of plant cells to substances that can induce resistance in plants is to open ion channels in the cell membrane. Thereupon, protons flow into the interior of the cell, which causes alcalinization of the medium surrounding the cell. This temporary alcalinization has been measured.
Greenhouse plants of the variety Pinot noir (Vitis vinifera cv. Pinot noir) served as the starting material. A callus culture was started first from young shoots. Thus, the plant parts were cut into pieces about 1-2 cm in size, washed in 70% (v/v) ethanol and sterilized in 3.5% (w/v) NaOCl solution for about 2 min. The sterilized tissue pieces were transferred to solid MS nutrient medium (Murashige, T. and Skoog, F., Physiol. Plant, 18: 100-127 (1962)) and slightly pushed into the agar, so that the cuts came into contact with the medium. The formation of callus tissue occurred at 23° C. in a phytochamber (16 h of white light 300 μmol m^−2 s^−1; 8 h of dark; >95% relative humidity). At the cuts, calluses formed, which were repeatedly transferred to a new medium in a sterile manner after 4-6 weeks.
Starting from strongly growing callus cultures, single cell cultures were started. Thus, cells were passaged under sterile conditions from callus tissue to liquid MS nutrient medium. The cell cultures were grown in a temperature constant room at 23° C. on a rotary shaker (120 rpm). In regular passage cycles of 4 days, the cell cultures were admixed with 40 ml of new liquid MS nutrient medium and distributed in two equal parts of about 40 ml to two 250 ml Erlenmeyer flasks.
For measuring the pH of the medium, 10 ml of a 2 days old cell culture was added to a small rolled rim vial. The rolled rim vial was placed onto a shaker, and a pH electrode was immersed into the cell culture. The electrode was fixed to be constantly washed round by the cell culture. The revolutions per minute of the shaker was 140 rpm. After the measured pH had stabilized, the substance to be tested was added, and the change of pH was continuously recorded with a plotter.

Plasmopara viticola [3] = test: Downy mildew control on Gutedel seedlings; type: in vivo, Plasmopara viticola on Gutedel seedlings; settings: for Infestation incidence (%) / Infestation intensity (%): evaluated after 10 days
Experimental: The examinations were performed with seedlings of the variant “Gutedel”, the seedlings having 3-4 leaves and a height of 8-12 cm at the time of application. HePC (0.01 and 0.001%) was applied with a rotary plate automated spraying device (about 1.2 bar spraying pressure) for 20 seconds. For each concentration, 6 plants were treated, which also applied to the positive control (infection, no treatment) and negative control (no infection, no treatment).
After the leaves had dried, the plants were infected/sprayed with Plasmopara viticola (spore suspension (100,000 spores/ml)) and further kept at 21° C. and 100% RH in a cycle of 16 h of day and 8 h of night.
The proportion of leaves infested (incidence) and the intensity of infestation, i.e., the infested proportion of the leaf areas, were evaluated.

Plasmopara viticola [4] = test: Downy mildew control on intact greenhouse plants; type: in vivo, Plasmopara viticola on Vitis vinifera cv. Müller-Thurgau; settings: for II (%) per REP / II (%) per variant: infestation intensity; for RW II IF (%): relation value for infestation frequency vs control; for RW II II (%): relation value for infestation intensity vs control
Experimental: Greenhouse plants of the variety Müller-Thurgau (Vitis vinifera cv. Müller-Thurgau) served as the starting material. At least three plants each in the ten leaf stage were employed per test solution. HePC was applied (sprayed with the application device System Schachtner) in concentrations of 0.01%, 0.05% and 0.1%. In an additional experiment with 0.01% HePC, the same concentration of HePC (0.01%) was additionally applied one week before (2×HePC). After 24 h from the application of the test solutions, the plants were infected with the pathogen causing downy mildew (Plasmopara viticola). Six days after the infection, the sporulation of Plasmopara viticola was induced, and then the infestation intensity was established.
Thus, the percent proportion of the sporulating surface area relative to the entire surface area of each leaf was visually observed. For each substance and concentration, the leaves of at least three plants were evaluated, and the mean value determined. The application of distilled water served as a negative control. The experiment was repeated twice.

[5] = system: pathogen causing downy mildew of grapevine; test: Outdoor test in the vineyard under practical conditions; type: in vivo, Müller-Thurgau grapevine; settings: HePC 0.2%, no artificial infection, status Jun. 19, 2007
Source text: Currently (vegetation period of 2007), HePC (0.2%) is being tested in an outdoor test. In these experiments, the plants in a commercial vineyard (Müller-Thurgau, age about 15 years) are not artificially infected. For this experiment, 3×6 plants (different locations in the vineyard) were employed. In addition, a corresponding untreated control is observed. […] Thus, to date, it has not been possible to observe infestation of the plants treated with HePC, despite of the currently sticky and humid weather (optimum infection conditions) and the very early start of the vegetation period in this year. In contrast, infestation of the control has already been observed.

[6] = HePC 0.05%, infestation frequency

## CCCCCCCCCCCCCCCCOP(=O)([O-])OCC[N+](C)(C)C [HePC, hexadecylphosphocholine]
Plasmopara viticola [1]; HePC 0.0001%
  Average infestation intensity: 5.0 and 2.9
  No. of leaf disks at scale point 1 (no sporulation): 0
Plasmopara viticola [1]; HePC 0.01%
  Average infestation intensity: 1.0
  No. of leaf disks at scale point 1 (no sporulation): 9
  No. of leaf disks at scale point 2: 0
  No. of leaf disks at scale point 3: 0
  No. of leaf disks at scale point 4: 0
  No. of leaf disks at scale point 5 (sporulation all over the surface): 0
Plasmopara viticola [1]; HePC 0.1%
  Average infestation intensity: 1.0
  No. of leaf disks at scale point 1 (no sporulation): 9
  No. of leaf disks at scale point 2: 0
  No. of leaf disks at scale point 3: 0
  No. of leaf disks at scale point 4: 0
  No. of leaf disks at scale point 5 (sporulation all over the surface): 0
[2]; HePC final concentration 0.00025%
  Δ (pH): 0.03
[2]; HePC final concentration 0.00050%
  Δ (pH): 0.16
[2]; HePC final concentration 0.00075%
  Δ (pH): 0.25
[2]; HePC final concentration 0.00100% (w/v)
  Δ (pH): 0.41
Plasmopara viticola [3]; 0.001% HePC compared with 0.01% HePC
  infestation increased by a factor: 10
Plasmopara viticola [3]; HePC 0.001%
  Infestation incidence (%): 43%
  Infestation intensity (%): 33.9%
Plasmopara viticola [3]; HePC 0.01%
  leaves infested as compared to the positive control: 25%
  Infestation incidence (%): 13%
  Infestation intensity (%): 3.6%
Plasmopara viticola [4]; HePC 0.01% applied once, infestation frequency
  IF (%) per variant: 53.4%
Plasmopara viticola [4]; HePC 0.01% applied once
  II (%) per REP: 1.67% and 2.89% and 4.00%
  II (%) per variant: 2.85%
  RW II IF (%): 23.6% and 23.56%
  RW II II (%): 73.2% and 73.16%
Plasmopara viticola [4]; HePC 0.01%, 2 x (also applied one week before)
  II (%) per REP: 0.20% and 0.80% and 0.11%
Plasmopara viticola [4]; HePC 0.01%, 2 x, infestation frequency
  IF (%) per variant: 23.7%
Plasmopara viticola [4]; HePC 0.01%, 2 x
  II (%) per variant: 0.37%
  RW II IF (%): 66.1% and 66.09%
  RW II II (%): 96.5% and 96.51%
Plasmopara viticola [4]; [6]
  IF (%) per REP: 33.3% and 44.4%
  IF (%) per variant: 37.0%
Plasmopara viticola [4]; HePC 0.05%
  II (%) per REP: 2.22% and 1.33% and 0.33%
  II (%) per variant: 1.30%
  RW II IF (%): 47.0% and 47.02%
  RW II II (%): 87.8%
Plasmopara viticola [4]; HePC 0.1%, infestation frequency
  IF (%) per variant: 25.0%
Plasmopara viticola [4]; HePC 0.1%
  II (%) per REP: 0.11% and 0.33% and 0.89%
  II (%) per variant: 0.36%
  RW II IF (%): 64.2% and 64.24%
  RW II II (%): 96.6%
[5]
  prevention of pathogen infestation: good effect
